Legend:
[1] = molecular target: T1, Caspase-7 (Homo sapiens, UniProt P55210); assay: Inhibition of human recombinant caspase-7 using Ac-DEVD-AMC as substrate assessed as accumulation of AMC preincubated for 10 mins followed by substrate addition measured after 10 mins by fluorescence assay
T1 sequence (P55210 whole entry): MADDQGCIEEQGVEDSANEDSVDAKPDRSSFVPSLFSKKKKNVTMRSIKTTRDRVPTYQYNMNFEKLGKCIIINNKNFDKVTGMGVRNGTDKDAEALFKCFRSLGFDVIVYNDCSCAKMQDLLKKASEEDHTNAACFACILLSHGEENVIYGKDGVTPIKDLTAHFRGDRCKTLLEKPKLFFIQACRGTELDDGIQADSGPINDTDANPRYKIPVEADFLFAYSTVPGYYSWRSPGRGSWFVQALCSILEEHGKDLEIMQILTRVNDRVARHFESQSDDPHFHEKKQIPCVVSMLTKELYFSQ

[2] = molecular target: T2, Caspase-3 (Homo sapiens, UniProt P42574); assay: Inhibition of human recombinant caspase-3 using Ac-DEVD-AMC as substrate assessed as accumulation of AMC preincubated for 10 mins followed by substrate addition measured after 10 mins by fluorescence assay
T2 sequence (P42574 whole entry): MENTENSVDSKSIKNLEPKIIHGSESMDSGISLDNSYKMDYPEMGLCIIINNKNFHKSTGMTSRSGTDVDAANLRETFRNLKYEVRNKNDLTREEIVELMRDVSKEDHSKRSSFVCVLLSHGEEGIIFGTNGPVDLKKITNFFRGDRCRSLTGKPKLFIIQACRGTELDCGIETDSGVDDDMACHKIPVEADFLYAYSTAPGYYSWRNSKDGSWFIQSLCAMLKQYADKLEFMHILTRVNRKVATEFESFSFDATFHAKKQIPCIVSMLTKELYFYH

| SMILES | IC50 [1] [µM] | IC50 [2] [µM] |
| --- | --- | --- |
| COC[C@@H]1C[C@@H](OC)CN1S(=O)(=O)c1ccc2c(c1)C(=O)C(=O)N2 | > 500 | > 500 |
| COC[C@@H]1C[C@H](OC)CN1S(=O)(=O)c1ccc2c(c1)C(=O)C(=O)N2 | > 500 | > 500 |
| COC[C@@H]1C[C@@H](OCCOCCOCCOCCO)CN1S(=O)(=O)c1ccc2c(c1)C(=O)C(=O)N2 | > 500 | > 500 |
| COC[C@@H]1C[C@H](OCCOCCOCCOCCO)CN1S(=O)(=O)c1ccc2c(c1)C(=O)C(=O)N2 | > 500 | > 500 |
| CCCCN1C(=O)C(=O)c2cc(S(=O)(=O)N3C[C@@H](OCCOCCOCCOCCO)C[C@H]3COC)ccc21 | > 500 | > 500 |
| COC[C@@H]1C[C@@H](C(F)(F)F)CN1S(=O)(=O)c1ccc2c(c1)C(=O)C(=O)N2 | > 500 | > 500 |
| COC[C@@H]1C[C@H](C(F)(F)F)CN1S(=O)(=O)c1ccc2c(c1)C(=O)C(=O)N2 | – | 101 |
| COC[C@H]1CC[C@@H](COC)N1S(=O)(=O)c1ccc2c(c1)C(=O)C(=O)N2 | > 500 | > 500 |
| COC[C@@H]1CC[C@@H](COC)N1S(=O)(=O)c1ccc2c(c1)C(=O)C(=O)N2 | > 500 | > 500 |

From ChEMBL document CHEMBL2390880, “Influence of 4- or 5-substituents on the pyrrolidine ring of 5-[1-(2-methoxymethylpyrrolidinyl)sulfonyl]isatin derivatives on their inhibitory activities towards caspases-3 and -7” (Eur J Med Chem, 2013)
